Data as given in paper PMC11044139, “Comparative Study of Toxic Terpenoidal Aldehydes and Lactone Derivatives from the European Polypore Bondarzewia mesenterica” (ACS Omega, 2024).
≈ marks a conversion by molar mass, not a printed value. Where “and” joins values, the source holds several entries; their conditions need not be identical. Equal values may be shown once. Read-outs that look alike come from different tables or passages of the source.

Columns and labels:
[1] = test system: human breast adenocarcinoma (MCF-7); test: Cytotoxicity (MTT) assay, MCF-7; type: cell-based
Text: (§1) MTT (3-(4,5-dimethylthiayol-2-yl)-2,5-diphenyltetrazolium bromide)-based assay was used to determine in vitro cytotoxicity as previously reported.[24] The tested mammalian cell lines included mouse fibroblasts (L929), endocervical adenocarcinoma (KB3.1), human lung carcinoma (A549), breast adenocarcinoma (MCF-7), prostate carcinoma (PC-3), and epidermoid carcinoma cells (A431). Epothilone B was used as a positive control.

[2] = test system: human prostate carcinoma (PC-3); test: Cytotoxicity (MTT) assay, PC-3; type: cell-based
Text: as §1

[3] = test system: Pichia anomala (DSM 6766); test: Antimicrobial assay (MIC), P. anomala; type: cell-based
Description: (§2) The antimicrobial effects of the isolated compounds were determined using our established protocols.[19] Generally, an array of clinically relevant microorganisms consisting of bacteria, namely, S. aureus (DSM 346), A. baumanii (DSM 30008), B. subtilis (DSM 10), E. coli (DSM 1116), P. aeruginosa (PA14), C. violaceum (DSM 30191), and M. smegmatis (ATCC 700084), and fungi including M. hiemalis (DSM 2656), C. albicans (DSM 1665), R. glutinis (DSM 10134), S. pombe (DSM 70572), and P. anomala (DSM 6766), were used. […] The minimum inhibitory concentrations (MIC) were recorded after an overnight incubation as the lowest concentration under which no microbial growth was visualized. The microorganisms were obtained from the German Collection of Microorganisms and Cell Cultures (DSMZ, Braunschweig, Germany).

[4] = test system: human ovarian cancer (SKOV-3); test: Cytotoxicity (MTT) assay, SKOV-3; type: cell-based
[5] = test system: human endocervical adenocarcinoma (KB3.1); test: Cytotoxicity (MTT) assay, KB3.1; type: cell-based; settings: for IC50: Homo sapiens, KB 3-1, n.a. = no activity
Text: as §1, with “(A431).” for “(A431). Epothilone B was used as a positive control.”

[6] = test system: human lung carcinoma (A549); test: Cytotoxicity (MTT) assay, A549; type: cell-based
Text: as §1

[7] = test system: Schizosaccharomyces pombe (DSM 70572); test: Antimicrobial assay (MIC), S. pombe; type: cell-based
Description: as §2

[8] = test system: human epidermoid carcinoma (A431); test: Cytotoxicity (MTT) assay, A431; type: cell-based
Text: as §1

[9] = test system: Escherichia coli (DSM 1116); test: Antimicrobial assay (MIC), E. coli; type: cell-based; settings: overnight incubation, n.i. = no inhibition up to 67 μg/mL
Description: as §2

[10] = set-up: method as in doi:10.1021/np50038a013; settings: previous report; cited from earlier work
[11] = test system: Mucor hiemalis (DSM 2656); test: Antimicrobial assay (MIC), M. hiemalis; type: cell-based
Description: as §2

mouse fibroblast (L929) = test: Cytotoxicity (MTT) assay, L929; type: cell-based; settings: for IC50: Mus musculus, n.a. = no activity
Text: as §1, with “(A431).” for “(A431). Epothilone B was used as a positive control.”

[12] = test system: Chromobacterium violaceum (DSM 30191); test: Antimicrobial assay (MIC), C. violaceum; type: cell-based; settings: overnight incubation, n.i. = no inhibition up to 67 μg/mL
Description: as §2

[13] = test system: Bacillus subtilis (DSM 10); test: Antimicrobial assay (MIC), B. subtilis; type: cell-based
Description: as §2

[14] = test system: Candida albicans (DSM 1665); test: Antimicrobial assay (MIC), C. albicans; type: cell-based
Description: as §2

[15] = test system: Staphylococcus aureus (DSM 346); test: Antimicrobial assay (MIC), S. aureus; type: cell-based
Description: as §2

[16] = test system: Acinetobacter baumanii (DSM 30008); test: Antimicrobial assay (MIC), A. baumanii; type: cell-based; settings: overnight incubation, n.i. = no inhibition up to 67 μg/mL
Description: as §2

all tested cell lines = test: Cytotoxicity (MTT) assay, all tested cell lines; type: cell-based; settings: read-out: IC50 values, range against all tested cell lines
Text: as §1

[17] = test system: Pseudomonas aeruginosa (PA14); test: Antimicrobial assay (MIC), P. aeruginosa; type: cell-based; settings: overnight incubation, n.i. = no inhibition up to 67 μg/mL
Description: as §2

[18] = test system: Rhodotorula glutinis (DSM 10134); test: Antimicrobial assay (MIC), R. glutinis; type: cell-based
Description: as §2

[19] = test system: Mycobacterium smegmatis (ATCC 700084); test: Antimicrobial assay (MIC), M. smegmatis; type: cell-based
Description: as §2

[20] = SK-OV-3, SKOV-3, read-out: IC50
[21] = Pichia anomala, overnight incubation, n.i. = no inhibition up to 67 μg/mL
[22] = overnight incubation, n.i. = no inhibition up to 67 μg/mL
[23] = Mycobacterium smegmatis, overnight incubation, n.i. = no inhibition up to 67 μg/mL
[24] = DSM346, overnight incubation, n.i. = no inhibition up to 67 μg/mL, read-out: MIC
[25] = DSM2656, overnight incubation, n.i. = no inhibition up to 67 μg/mL, read-out: MIC
[26] = DSM10, overnight incubation, n.i. = no inhibition up to 67 μg/mL, read-out: MIC

Compound | MIC [9] | MIC [12] | MIC [16] | MIC [17] | MIC [3, 21] | MIC [7, 22] | MIC [11, 22] | MIC [13, 22] | MIC [14, 22] | MIC [15, 22] | MIC [18, 22] | MIC [19, 23] | also measured
CC1(C)CC2C=C(C=O)[C@]3(C=O)C[C@]3(C)C2C1 (single isomer, unassigned; (+)) [Compound 8, (+)-isovelleral] | n.i. | n.i. | n.i. | n.i. |  |  |  |  |  |  |  |  | IC50 ([1]; MCF7, MCF-7, read-out: IC50): 2800 nM; IC50 ([2]; PC-3, read-out: IC50): 3.9 µM; MIC ([3]; Hansenula anomala, DSM6766): 16.6 µg/mL (≈ 71.5 µM); IC50 [4, 20]: 5.2 µM; IC50 [5]: 10.3 µM; IC50 ([6]; A549, read-out: IC50): 30.2 µM; MIC ([7]; DSM70572): 33.3 µg/mL (≈ 143 µM); IC50 ([8]; A-431, A431, read-out: IC50): 3.4 µM; mutagenicity [10]: revealed mutagenicity; MIC ([11]; DSM2656): 8.3 µg/mL (≈ 35.7 µM); IC50 (mouse fibroblast (L929)): 10.3 µM; MIC ([13]; DSM10): 33.3 µg/mL (≈ 143 µM); MIC ([14]; DSM1665): 33.3 µg/mL (≈ 143 µM); MIC ([15]; DSM346): 33.3 µg/mL (≈ 143 µM); IC50 (all tested cell lines): 2.8 to 30.2 µM; MIC ([18]; DSM10134): 16.6 µg/mL (≈ 71.5 µM); MIC ([19]; Mycolicibacterium smegmatis, ATCC700084): 33.3 µg/mL (≈ 143 µM)
CC(C)=CCC(CC1=CC(=O)OC1)C(=O)O (stereo not shown) [Compound 2, vibralactones J] | n.i. | n.i. | n.i. | n.i. | n.i. | n.i. | n.i. | n.i. | n.i. | n.i. | n.i. | n.i. | 
CC(C)=CCC(/C=C(\CO)CCO)C(=O)O (stereo not shown) [Compound 3, sterepinic acid A] | n.i. | n.i. | n.i. | n.i. | n.i. | n.i. | n.i. | n.i. | n.i. |  | n.i. | n.i. | cytotoxicity (in words) [5]: non-cytotoxic; cytotoxicity (in words) (mouse fibroblast (L929)): non-cytotoxic; MIC [15, 24]: 66.6 µg/mL (≈ 292 µM)
CC(C)(O)[C@H]1C[C@@H](CC2=CC(=O)OC2)C(=O)O1 [Compound 4, vibralactones Z1] | n.i. | n.i. | n.i. | n.i. | n.i. | n.i. | n.i. | n.i. | n.i. | n.i. | n.i. | n.i. | 
CC(C)(O)[C@H]1C[C@H](CC2=CC(=O)OC2)C(=O)O1 [Compound 5, vibralactones Z2] | n.i. | n.i. | n.i. | n.i. | n.i. | n.i. | n.i. | n.i. | n.i. |  | n.i. | n.i. | cytotoxicity (in words) [5]: non-cytotoxic; cytotoxicity (in words) (mouse fibroblast (L929)): non-cytotoxic; MIC [15, 24]: 66.6 µg/mL (≈ 277 µM)
CC(C)=CC[C@H]1C=C(CO)C=COC1=O [Compound 6, 1,5-secovibralactone] | n.i. | n.i. | n.i. | n.i. | n.i. | n.i. |  | n.i. | n.i. | n.i. | n.i. | n.i. | MIC [11, 25]: 66.6 µg/mL (≈ 320 µM)
CC(=O)O[C@@H]1CC2C3=C(C(C)C)CC[C@]3(C)CC[C@@]2(C)[C@@H](OC2OC[C@@H](O)[C@H](O)[C@H]2O)C=C1C=O (stereo partly shown) [Compound 7, erinacine P] | n.i. | n.i. | n.i. | n.i. | n.i. | n.i. |  |  | n.i. |  |  | n.i. | IC50 ([1]; MCF7, MCF-7, read-out: IC50): 3300 nM; IC50 ([2]; PC-3, read-out: IC50): 4.9 µM; IC50 [4, 20]: 7.7 µM; IC50 [5]: 5.1 µM; IC50 ([6]; A549, read-out: IC50): 14.2 µM; IC50 ([8]; A-431, A431, read-out: IC50): 3.5 µM; MIC [11, 25]: 66.6 µg/mL (≈ 135 µM); IC50 (mouse fibroblast (L929)): 13 µM; MIC [13, 26]: 33.3 µg/mL (≈ 67.6 µM); MIC [15, 24]: 66.6 µg/mL (≈ 135 µM); IC50 (all tested cell lines; range over all tested cell lines): 3.3 to 14.2 µM and 3.5 to 14.2 µM; MIC ([18]; DSM10134, overnight incubation, n.i. = no inhibition up to 67 μg/mL, read-out: MIC): 16.6 µg/mL (≈ 33.7 µM)
COc1ccc([C@H](O)[C@H](C)O)cc1 [Compound 11, (4-methoxyphenyl)-1,2-propanediol] | n.i. | n.i. | n.i. | n.i. | n.i. | n.i. | n.i. | n.i. | n.i. | n.i. | n.i. | n.i. | 
COc1ccc(C(=O)C(C)O)cc1 (stereo not shown) [Compound 12, 2-hydroxy-(4′-methoxy)-propiophenone] | n.i. | n.i. | n.i. | n.i. | n.i. | n.i. | n.i. | n.i. | n.i. | n.i. | n.i. | n.i. | 
C/C(=C\c1csc(C)n1)[C@@H]1C[C@@H]2O[C@]2(C)CCC[C@H](C)[C@H](O)[C@@H](C)C(=O)C(C)(C)[C@@H](O)CC(=O)O1 [epothilone B, Epothilone B, reference compound] |  |  |  |  |  |  |  |  |  |  |  |  | IC50 ([1]; MCF7, read-out: IC50, positive control epothilone B): 0.07 nM; IC50 ([2]; PC-3, read-out: IC50, positive control epothilone B): 9e-05 µM; IC50 ([4]; SK-OV-3, read-out: IC50, positive control epothilone B): 9e-05 µM; IC50 ([6]; A549, read-out: IC50, positive control epothilone B): 5e-05 µM; IC50 ([8]; A-431, read-out: IC50, positive control epothilone B): 6e-05 µM
NC[C@H]1O[C@H](O[C@H]2[C@H](O)[C@@H](O[C@H]3O[C@H](CO)[C@@H](O)[C@H](N)[C@H]3O)[C@H](N)C[C@@H]2N)[C@H](O)[C@@H](O)[C@@H]1O [kanamycin, reference compound] |  |  |  |  |  |  |  |  |  |  |  | 1.70^K μg/mL | 
C[C@@H]1[C@H](O)[C@@H](C)/C=C/C=C/CC/C=C/C=C/C=C/C=C/C(O[C@H]2O[C@H](C)[C@@H](O)[C@H](N)[C@@H]2O)CC2O[C@](O)(CC(O)C(O)CCC(O)CC(O)CC(O)CC(=O)O[C@H]1C)CC(O)C2C(=O)O (stereo partly shown) [nystatin, reference compound] |  |  |  |  | 8.30^N μg/mL | 8.30^N μg/mL | 8.30^N μg/mL |  | 8.30^N μg/mL |  | 4.20^N μg/mL |  | 
CN(C)[C@@H]1C(O)=C(C(N)=O)C(=O)[C@@]2(O)C(O)=C3C(=O)c4c(O)cccc4[C@@](C)(O)[C@H]3[C@H](O)[C@@H]12 [oxytetracycline, reference compound] |  |  |  |  |  |  |  |  |  |  |  |  | MIC [13, 26]: 16.6 µg/mL (≈ 36.1 µM)
Gentamycin [reference compound] | 0.83^G μg/mL | 1.67^G μg/mL |  | 0.42^G μg/mL |  |  |  |  |  | 0.42^G μg/mL |  |  | 
